According to US11046690B2, “Pyridazinones and methods of use thereof” (Goldfinch Bio, Inc., priority 2018, dated 2021):

Molecular target: T1, TRPC4 (Homo sapiens, UniProt Q9UBN4)
T1 construct: expressed in transfected cells
T1 sequence (Q9UBN4 1-982 isoform Q9UBN4-5): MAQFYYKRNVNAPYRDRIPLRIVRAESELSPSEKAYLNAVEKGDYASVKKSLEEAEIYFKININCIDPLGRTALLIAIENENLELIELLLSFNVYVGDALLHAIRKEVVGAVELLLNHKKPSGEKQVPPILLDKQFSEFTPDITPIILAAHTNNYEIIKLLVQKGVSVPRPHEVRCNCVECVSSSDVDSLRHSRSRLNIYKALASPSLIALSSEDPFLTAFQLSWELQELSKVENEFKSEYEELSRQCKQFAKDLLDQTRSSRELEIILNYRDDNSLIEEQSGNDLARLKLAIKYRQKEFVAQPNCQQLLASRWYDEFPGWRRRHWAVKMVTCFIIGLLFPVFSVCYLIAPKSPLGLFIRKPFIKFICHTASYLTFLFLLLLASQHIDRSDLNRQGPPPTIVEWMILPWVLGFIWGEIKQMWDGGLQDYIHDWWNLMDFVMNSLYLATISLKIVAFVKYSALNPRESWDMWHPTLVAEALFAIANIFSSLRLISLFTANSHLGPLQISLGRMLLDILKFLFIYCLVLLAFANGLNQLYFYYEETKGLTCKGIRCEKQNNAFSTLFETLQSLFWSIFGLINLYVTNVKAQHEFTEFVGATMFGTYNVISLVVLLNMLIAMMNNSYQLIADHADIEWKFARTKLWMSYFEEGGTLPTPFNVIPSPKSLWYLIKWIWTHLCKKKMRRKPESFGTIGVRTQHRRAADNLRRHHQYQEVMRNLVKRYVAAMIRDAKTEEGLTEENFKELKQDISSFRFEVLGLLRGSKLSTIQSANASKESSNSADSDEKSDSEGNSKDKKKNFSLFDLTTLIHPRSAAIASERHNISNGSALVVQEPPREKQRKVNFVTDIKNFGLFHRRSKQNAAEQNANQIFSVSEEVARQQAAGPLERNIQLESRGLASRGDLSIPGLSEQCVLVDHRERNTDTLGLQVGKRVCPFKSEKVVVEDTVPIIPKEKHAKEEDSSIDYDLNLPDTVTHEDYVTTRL
Experiment: TRPC4 activity assay (FLIPR calcium fluorescence, Englerin A stimulation)
Format: cell-based
Conditions: HEK-TREx hTRPC4 cells, 100 nM Englerin A stimulation; read-out: TRPC4 (IC50 class)
Experimental: ICLN-1694 cells (HEK-TREx hTRPC4) expressing TRPC4 were generated as follows. Commercially available HekTrex-293 cells were seeded at 0.7×10^6 cells/well in a 1×6-well plate 24 hrs prior to transfection using 2 mL cell growth media containing no antibiotics (1× DMEM/high glucose (Hyclone #SH30022.02); 10%0/fetal bovine serum (Sigma) 2 mM sodium pyruvate, 10 mM HEPES). […] On day 2, 2 μg of plasmid DNA plus 6 μl of Xtreme-GENE HP reagent in Optimem (200 μl total volume) was prepared and incubated for 15 min at room temperature. This plasmid solution was then gently overlayed dropwise onto each well and the plate was gently swirled to mix complex with the media for approximately 30 seconds. Transfected cells were incubated at 37° C. in a 10% C02 incubator for 24 hrs. The transfected cells were harvested and transferred into 2×150 mm dishes containing cell growth media with no antibiotics at 37° C.
The next day selection was initiated to generate a stable pool by adding cell growth media containing 150 μg/mL Hygromycin and 5 μg/mL Blasticidin and cells were allowed to grow. Media with the selection agent was changed every 1-2 days as needed to remove dead cells. After 7 days, the hygromycin concentration was reduced to 75 μg/mL and cells growth was allowed to continue.
Single clones were selected as follows. The stable pool was diluted to 10 cells/mL and seeded (100 μl/well) into 24×96 well plates (˜1 cell/well) and allowed to grow for 7 days in cell growth media. Fresh media (100 μl) was added and the cells allowed to grow for another 1-2 weeks and then stored frozen or used immediately.
10-point dose response curves were generated using the Echo-550 acoustic dispenser. Compound source plates were made by serially diluting compound stocks to create 10 mM, 1 mM, and 0.1 mM solutions in DMSO into Echo-certified LDV plates. The Echo then serially spotted 100% DMSO stock solutions into source dose response plates to generate a 4-fold dilution scheme. 100% DMSO was added to the spotted dose response plates to bring the final volume to 5 μl. […] of the dose response stock plate was then spotted into pre-incubation and stimulation assay plates. 50 μl of pre-incubation buffer and 100 μl of stimulation buffer was then added to the plates resulting in a final assay test concentration range of 30 μM to 0.0001 μM with a final DMSO concentration of 0.3%.
ICLN-1694 cells (HEK-TREx hTRPC4) were plated onto 384 well, black pdl-coated microplates and maintained in cell growth media supplemented with 1 μg/mL tetracycline the day prior to use for experiments. TRPC4 expression was induced by the application of 1 μg/mL tetracycline at the time of plating. […] Cells were incubated at room temperature, protected from light, for 60-90 minutes. After the incubation period, the dye was removed and replaced with 10 μl of EBSS. Cell, pre-incubation and stimulation plates were loaded onto the FLIPR-II and the assay was initiated. The FLIPR measured a 10 second baseline and then added 10 μl of 2X compounds (or controls). Changes in fluorescence were monitored for an additional 5 minutes. After a 5 minute pre-incubation, 20 μl of 2X Englerin A (with 1X compound or controls) was added to the cell plate. The final Englerin A stimulation concentration in the assay was 100 nM. After the Englerin A addition, changes in fluorescence were monitored for an additional 5 minutes.
Compound modulation of TRPC4 calcium response was determined as follows. After the Englerin A, fluorescence was monitored for a 5-minute period. The maximum relative fluorescence response (minus the control response of 1 μM of an internal control compound known to maximally block TRPC4 calcium response, the “REF INHIB” in the formula below) was captured and exported from the FLIPR.
Compound effect is calculated as % inhibition using the following formula:
[formula] wherein “RFU” is the relative fluorescent units.

IC50 [nM]	Structure (SMILES)
< 50	O=c1[nH]ncc(N2CCc3c(ncnc3Oc3ccc(F)cc3Cl)C2)c1Cl [Compound 104]
50 to 500	CC1Cc2c(ncnc2Oc2ccc(F)cc2Cl)CN1c1cn[nH]c(=O)c1Cl (single isomer, unassigned) [Compound 117]
